Laboratory results: US11286268B1, “EIF4E-inhibiting compounds and methods” (EFFECTOR THERAPEUTICS, INC., priority 2019, dated 2022)
pIC50: −log10 of the molar value. Read-outs that look alike come from different tables or passages of the source.

Molecular target: recombinant eIF4E (Homo sapiens (Human), UniProt P06730)
Assay: Fluorescence polarization competition assay for eIF4E binding potency
In short: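 FP readout; IC50 fit from 8-point, 3-fold series. 75 nM eIF4E + 20 nM ATTO-550-labelled m7GDP probe, Tris pH 7.5/NaCl/DTT/Tween buffer, 1% DMSO final. 30 min RT equilibration, light-protected.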

[1] = fluorescence polarization competition, 75 nM recombinant eIF4E, 20 nM EDA-m7GDP-ATTO-550, IC50 class, read-out: elF4E FP
[2] = inhibition of eIF4E/EDA-m7GDP-ATTO-550 binding by 50%, Table 4B calculated values, read-out: IC50

recombinant eIF4E, sequence (P06730 whole entry): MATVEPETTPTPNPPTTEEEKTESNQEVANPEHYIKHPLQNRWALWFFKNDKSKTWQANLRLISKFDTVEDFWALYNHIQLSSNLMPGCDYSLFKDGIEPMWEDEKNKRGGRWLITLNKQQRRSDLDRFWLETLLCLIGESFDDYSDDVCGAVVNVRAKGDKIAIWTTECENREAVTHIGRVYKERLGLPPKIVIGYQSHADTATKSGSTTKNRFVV

Row | pIC50 [1] | pIC50 [2] | Structure (SMILES)
1 | > 7.30 | 7.87 | Cc1cc(-c2cc(Cl)ccc2OCCn2c(C)nc3cc(F)c(C4=CCCC4)c(C#N)c3c2=O)c2scc(C(=O)O)c2n1 [compound 805]
2 | > 7.30 | 8.45 | Cc1nc2cc(CN(C)C)c(OC(F)F)c(C#N)c2c(=O)n1CCOc1ccc(Cl)cc1-c1cccc(C(=O)O)c1 [compound 806]
3 | > 7.30 | – | Cc1cc(-c2cc(Cl)ccc2OCCn2c(C)nc3cnc(C4CC4(F)F)c(C#N)c3c2=O)c2scc(C(=O)O)c2n1 (stereo not shown) [compound 807]
4 | 6.00 to 7.30 | 7.28 | Cc1nc2cc(C(F)(F)F)c(N3CCN(C)CC3)c(C#N)c2c(=O)n1CCOc1ccc(Cl)cc1 [compound 808]
5 | > 7.30 | 7.80 | C=Cc1ncc2nc(C)n(CCOc3ccc(Cl)cc3-c3cc(C)nc4c(C(=O)O)csc34)c(=O)c2c1C#N [compound 809]
6 | > 7.30 | – | Cc1cc(-c2cc(Cl)ccc2OCCn2c(C)nc3cnc(N4CCN(C)CC4)cc3c2=O)c2scc(C(=O)O)c2n1 [compound 810]
7 | 6.00 to 7.30 | – | Cc1cc(-c2cc(Cl)ccc2OCCn2c(C)nc3ccc(N4CCN(C)CC4)cc3c2=O)c2scc(C(=O)O)c2n1 [compound 811]
8 | > 7.30 | 7.52 | Cc1cc(-c2cc(Cl)ccc2OCCn2c(C)nc3ccc(N4CCN(C)CC4)c(C#N)c3c2=O)c2sc(C)c(C(=O)O)c2n1 [compound 812]
9 | > 7.30 | 8.39 | CCc1ncc2nc(C)n(CCOc3ccc(Cl)cc3-c3ccnc4c(C(=O)O)csc34)c(=O)c2c1C#N [compound 813]
10 | > 7.30 | 8.48 | Cc1nc2cnc(N3CCN(C)C(C)(C)C3)c(C#N)c2c(=O)n1CCOc1ccc(Cl)cc1-c1ccnc2c(C(=O)O)csc12 [compound 815]
11 | > 7.30 | 8.16 | Cc1nc2c(N3CCN(C)CC3(C)C)ncc(C#N)c2c(=O)n1CCOc1ccc(Cl)cc1-c1ccnc2c(C(=O)O)csc12 [compound 816]
12 | > 7.30 | – | Cc1nc2c(N3CCN(CCF)C4CC43)ncc(C#N)c2c(=O)n1CCOc1ccc(Cl)cc1-c1ccnc2c(C(=O)O)csc12 (stereo not shown) [compound 817]
13 | > 7.30 | 7.88 | Cc1nc2c(N3CCN(CC(F)F)C4CC43)ncc(C#N)c2c(=O)n1CCOc1ccc(Cl)cc1-c1ccnc2c(C(=O)O)csc12 (stereo not shown) [compound 818]
14 | > 7.30 | 7.55 | Cc1nc2cnc(OC3CCNCC3)c(C#N)c2c(=O)n1CCOc1ccc(Cl)cc1-c1ccnc2c(C(=O)O)csc12 [compound 819]
15 | > 7.30 | 7.87 | Cc1nc2cnc(OC3CCN(CC(F)(F)F)CC3)c(C#N)c2c(=O)n1CCOc1ccc(Cl)cc1-c1ccnc2c(C(=O)O)csc12 [compound 820]
16 | > 7.30 | 7.85 | Cc1nc2cnc(S(=O)(=O)N3CCN(C)CC3)c(C#N)c2c(=O)n1CCOc1ccc(Cl)cc1-c1ccnc2c(C(=O)O)csc12 [compound 821]
17 | > 7.30 | 7.97 | Cc1nc2cnc(N3CC4(C3)CN(C3CC3)C4)c(C#N)c2c(=O)n1CC#Cc1ccc(Cl)cc1-c1ccnc2c(C(=O)O)csc12 [compound 822]
18 | > 7.30 | 7.94 | Cc1nc2cnc(N3CC4(C3)CN(C(C)(C)C(F)F)C4)c(C#N)c2c(=O)n1CCOc1ccc(Cl)cc1-c1ccnc2c(C(=O)O)csc12 [compound 823]
19 | > 7.30 | 7.87 | Cc1nc2cnc(N3CCN(CC(F)F)C4CC43)c(C#N)c2c(=O)n1CCOc1ccc(Cl)cc1-c1ccnc2c(C(=O)O)csc12 (stereo not shown) [compound 824]
20 | > 7.30 | 7.84 | Cc1nc2cnc(N3CC4(C3)CN(C3(CF)CC3)C4)c(C#N)c2c(=O)n1CCOc1ccc(Cl)cc1-c1ccnc2c(C(=O)O)csc12 [compound 825]
21 | > 7.30 | 8.24 | Cc1nc2cnc(N(C)C3CC4(C3)CN(CC(F)(F)F)C4)c(C#N)c2c(=O)n1CC#Cc1ccc(Cl)cc1-c1ccnc2c(C(=O)O)csc12 [compound 827]
22 | > 7.30 | 8.24 | Cc1nc2cnc(N(C)C3CC4(C3)CN(C(C)(C)CF)C4)c(C#N)c2c(=O)n1CC#Cc1ccc(Cl)cc1-c1ccnc2c(C(=O)O)csc12 [compound 828]
23 | > 7.30 | 8.34 | Cc1nc2cnc(N3CC4(CC(N(C)C5CC5)C4)C3)c(C#N)c2c(=O)n1CCOc1ccc(Cl)cc1-c1ccnc2c(C(=O)O)csc12 [compound 829]
24 | > 7.30 | 7.89 | Cc1nc2cnc(N3CC4(CC(N(C)C5CC5)C4)C3)c(C#N)c2c(=O)n1CC#Cc1ccc(Cl)cc1-c1ccnc2c(C(=O)O)csc12 [compound 830]
25 | > 7.30 | 7.91 | Cc1cc(-c2cc(Cl)ccc2OCCn2c(C)nc3cnc(C4(C)CC4)c(C#N)c3c2=O)c2scc(C(=O)O)c2n1 [compound 831]
26 | 6.00 to 7.30 | 6.95 | Cc1nc2cc(C(F)(F)F)c(N3CCN(C)CC3)c(C#N)c2c(=O)n1CCOc1ccc(Cl)cc1-c1ccccc1 [compound 833]

Row | pIC50 [1] | pIC50 [2] | Structure (SMILES)
27 | > 7.30 | 7.50 | Cc1nc2cc(C(F)(F)F)c(N3CCN(C)CC3)c(C#N)c2c(=O)n1CCOc1ccc(Cl)cc1-c1ccnc2c(C(=O)O)csc12 [compound 834]
28 | > 7.30 | 7.53 | Cc1cc(-c2cc(Cl)ccc2OCCn2c(C)nc3cc(C(F)(F)F)c(N4CCN(C)CC4)c(C#N)c3c2=O)cc(C)n1 [compound 835]
29 | > 7.30 | 8.63 | Cc1cc(-c2cc(Cl)ccc2OCCn2c(C)nc3cc(C(F)(F)F)c(N4CCN(C)CC4)c(C#N)c3c2=O)c2sccc2n1 [compound 836]
30 | > 7.30 | 7.87 | Cc1nc2c(N3CCNCC(F)(F)C3)ncc(C#N)c2c(=O)n1CCOc1ccc(Cl)cc1-c1ccnc2c(C(=O)O)csc12 [compound 837]
31 | > 7.30 | 7.41 | Cc1nc2c(N3CCN(C)CC(F)(F)C3)ncc(C#N)c2c(=O)n1CCOc1ccc(Cl)cc1-c1ccnc2c(C(=O)O)csc12 [compound 838]
32 | > 7.30 | 7.53 | Cc1cc(-c2cc(Cl)ccc2OCCn2c(C)nc3cnc(C4(C(F)(F)F)CC4)c(C#N)c3c2=O)c2scc(C(=O)O)c2n1 [compound 839]
33 | > 7.30 | 7.98 | Cc1nc2cnc(N3CC4(CN(CC(F)(F)F)C4)C3)c(C#N)c2c(=O)n1CCOc1ccc(Cl)cc1-c1ccnc2c(C(=O)O)csc12 [compound 840]
34 | 6.00 to 7.30 | < 6.00 | Cc1nc2cncc(OCCN(C)C)c2c(=O)n1CCOc1ccc(Cl)cc1-c1ccnc2c(C(=O)O)csc12 [compound 841]
35 | > 7.30 | 7.68 | Cc1nc2cnc(N3CCN(C)CC3)c(C#N)c2c(=O)n1CC#Cc1ccc(Cl)cc1-c1ccnc2c(C(=O)O)csc12 [compound 842]
36 | > 7.30 | 7.88 | Cc1nc2c(N3CCN(CCCC(F)(F)F)CC3)ncc(C#N)c2c(=O)n1CCOc1ccc(Cl)cc1-c1ccnc2c(C(=O)O)csc12 [compound 843]
37 | > 7.30 | 7.63 | Cc1nc2cnc(N3CCN(CCCC(F)(F)F)CC3)c(C#N)c2c(=O)n1CCOc1ccc(Cl)cc1-c1ccnc2c(C(=O)O)csc12 [compound 844]
38 | > 7.30 | 7.90 | Cc1nc2cnc(N3CCN(C(C)(C)CC(F)(F)F)CC3)c(C#N)c2c(=O)n1CCOc1ccc(Cl)cc1-c1ccnc2c(C(=O)O)csc12 [compound 845]
39 | > 7.30 | 7.42 | Cc1cc(-c2cc(Cl)ccc2OCCn2c(C)nc3cnc(OC4CN(C)C4)c(C#N)c3c2=O)c2sc(C)c(C(=O)O)c2n1 [compound 846]
40 | > 7.30 | 7.36 | Cc1ncc(F)cc1-c1c(C(F)(F)F)cc2nc(C)n(CCOc3ccc(Cl)cc3-c3ccnc4c(C(=O)O)csc34)c(=O)c2c1C#N [compound 847]
41 | > 7.30 | 7.57 | Cc1cc(-c2cc(Cl)ccc2OCCn2c(C)nc3cnc(N(C)C4CCN(C)CC4)c(C#N)c3c2=O)c2sc(C)c(C(=O)O)c2n1 [compound 848]
42 | > 7.30 | 7.84 | Cc1cc(-c2cc(Cl)ccc2OCCn2c(C)nc3nc(C(F)(F)F)c(N4CCN(C)CC4)cc3c2=O)c2scc(C(=O)O)c2n1 [compound 849]
43 | > 7.30 | 7.75 | CCc1nc(C)c2nc(C)n(CCOc3ccc(Cl)cc3-c3cc(C)nc4c(C(=O)O)csc34)c(=O)c2c1C#N [compound 850]
44 | > 7.30 | 8.22 | CCc1nc(C)c2nc(C)n(CCOc3ccc(Cl)cc3-c3ccnc4c(C(=O)O)csc34)c(=O)c2c1C#N [compound 851]
45 | > 7.30 | 7.67 | Cc1nc2cc(C(F)(F)F)c(N3CCN(CCO)CC3)c(C#N)c2c(=O)n1CCOc1ccc(Cl)cc1-c1ccnc2ccsc12 [compound 852]
46 | > 7.30 | 7.50 | Cc1nc2cc(C(F)(F)F)c(OCCN3CCNCC3)c(C#N)c2c(=O)n1CCOc1ccc(Cl)cc1-c1ccnc2ccsc12 [compound 853]
47 | > 7.30 | 7.92 | Cc1nc2cnc(N(C)C3CCN(C)CC3)c(C#N)c2c(=O)n1CCOc1ccc(Cl)cc1-c1ccnc2c(C(=O)O)csc12 [compound 854]
48 | > 7.30 | 8.32 | Cc1nc2cc(C(F)(F)F)c(N3CCNCC3)c(C#N)c2c(=O)n1CCOc1ccc(Cl)cc1-c1ccnc2ccsc12 [compound 855]
49 | > 7.30 | 7.86 | Cc1cc(-c2cc(Cl)ccc2C#CCn2c(C)nc3cc(C(F)(F)F)c(N4CCN(CCO)CC4)c(C#N)c3c2=O)c2scc(C(=O)O)c2n1 [compound 856]
50 | > 7.30 | 8.14 | Cc1nc2cc(C(F)(F)F)c(CCN(C)C)cc2c(=O)n1CCOc1ccc(Cl)cc1-c1ccnc2c(C(=O)O)csc12 [compound 858]
51 | > 7.30 | 8.25 | Cc1nc2cc(C(F)(F)F)c(N3CCN(CCO)CC3)c(C#N)c2c(=O)n1CC#Cc1ccc(Cl)cc1-c1ccnc2c(C(=O)O)csc12 [compound 859]

Row | Structure (SMILES) | pIC50 [1] | pIC50 [2]
52 | Cc1nc2c(N3C4CCC3CN(C)C4)ncc(C#N)c2c(=O)n1CCOc1ccc(Cl)cc1-c1ccnc2c(C(=O)O)csc12 [compound 857] | > 7.30 | 8.34
